For orientation: IC50 means the midpoint of a concentration-inhibition curve.

The target of assay [1] is T1, Human Factor XIIa (Homo sapiens, UniProt P00748).
T1 construct: purchased Enzyme Research Laboratories
T1 sequence (P00748 373-615 limits assumed): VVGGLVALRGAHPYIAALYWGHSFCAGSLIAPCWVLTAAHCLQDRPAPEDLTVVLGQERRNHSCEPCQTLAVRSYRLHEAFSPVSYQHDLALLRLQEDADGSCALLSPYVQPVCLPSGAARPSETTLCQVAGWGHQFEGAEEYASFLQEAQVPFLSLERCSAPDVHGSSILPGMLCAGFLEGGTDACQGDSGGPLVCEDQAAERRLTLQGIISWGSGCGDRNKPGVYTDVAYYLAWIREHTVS
Nature of the assay: Factor XIIa inhibitory activity in vitro (fluorogenic substrate H-DPro-Phe-Arg-AFC). Format: biochemical. To be noted: 25° C., class symbols, read-out: Human FXIIa IC50. In outline: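 Enzyme incubated at 25° C with fluorogenic substrate H-DPro-Phe-Arg-AFC and a range of compound concentrations. Residual activity taken as initial reaction rate from […], giving IC50.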

Assay [2] deals with T2, Human FXIa (Homo sapiens, UniProt P03951).
T2 construct: Human FXIa (Enzyme Research Laboratories) was incubated; purchased Enzyme Research Laboratories
Nature of the assay: FXIa inhibitory activity in vitro (fluorogenic substrate Z-Gly-Pro-Arg-AFC), selectivity. Format: biochemical. Conditions: category scale, 25° C. Here is the method:
Determination of the % Inhibition for FXIa
Human FXIa (Enzyme Research Laboratories) was incubated at 25° C. with the fluorogenic substrate Z-Gly-Pro-Arg-AFC and various concentrations of the test compound. Residual enzyme activity (initial rate of reaction) was determined by measuring the change in fluorescence at 410 nm and the IC50 value for the test compound was determined.

T2 sequence (P03951 388-625 limits assumed): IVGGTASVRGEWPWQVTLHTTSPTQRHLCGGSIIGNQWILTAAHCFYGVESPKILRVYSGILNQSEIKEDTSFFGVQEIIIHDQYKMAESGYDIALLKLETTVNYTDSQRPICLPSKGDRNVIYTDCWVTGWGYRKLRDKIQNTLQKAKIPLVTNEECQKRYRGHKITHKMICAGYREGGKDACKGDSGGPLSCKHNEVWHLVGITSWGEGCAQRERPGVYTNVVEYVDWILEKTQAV
T2 sequence (P03951 19-387 partner limits assumed): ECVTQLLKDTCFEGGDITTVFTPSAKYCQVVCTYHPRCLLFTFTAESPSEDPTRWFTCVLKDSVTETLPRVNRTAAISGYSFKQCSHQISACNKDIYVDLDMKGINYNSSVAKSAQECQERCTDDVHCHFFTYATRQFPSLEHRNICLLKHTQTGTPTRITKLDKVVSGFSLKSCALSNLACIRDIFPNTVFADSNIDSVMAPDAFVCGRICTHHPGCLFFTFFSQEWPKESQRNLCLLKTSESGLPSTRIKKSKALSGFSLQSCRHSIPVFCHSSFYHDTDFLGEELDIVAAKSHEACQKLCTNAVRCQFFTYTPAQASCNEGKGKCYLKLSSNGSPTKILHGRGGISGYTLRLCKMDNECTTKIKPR

For the compound `CC(C)(NS(=O)(=O)c1ccc2ccccc2c1)C(=O)NCc1ccc2c(N)nccc2c1` [Example 18.105], the IC50 in assay [1] and in assay [2] was 10 to 40 µM each time.
With `CN[C@H](CCc1ccccc1)C(=O)N[C@@H](C)C(=O)NCc1ccc2c(N)nccc2c1` [Example 6.10], the values for the IC50 in assay [1] and in assay [2] were 0.1 to 0.279 µM and 10 to 40 µM, respectively.
As for `CNC(C)(C)C(=O)N1C[C@H](c2ccccc2)C[C@H]1C(=O)NCc1ccc2c(N)nccc2c1` [Example 43.07], the IC50 in assay [1] is 3 to 10 µM; in assay [2], 10 to 40 µM.
Consider `C[C@@H]1CCC[C@H](C)N1CC(=O)N[C@@H](Cc1ccc(F)c(F)c1)C(=O)NCc1ccc2c(N)nccc2c1` [Example 3.42, (2S)—N-[(1-aminoisoquinolin-6-yl)methyl]-3-(3,4-difluorophenyl)-2-{2-[(2R,6S)-2,6-dimethylpiperidin-1-yl]acetamido}propanamide], for which the IC50 is 0.03 to 0.1 µM in assay [1] and above 40 µM in assay [2].
With `CC(C)N[C@H](CCCCN1CCCCC1)C(=O)N[C@@H](Cc1ccc2ccccc2c1)C(=O)NCc1ccc2c(N)nccc2c1` [Example 12.08], the results for the IC50 in assay [1] and in assay [2] were 1 to 3 µM and 10 to 40 µM, respectively.
Take `Cc1c(CNC(=O)[C@H](C)NC(=O)[C@H](N)CCc2ccccc2)ccc2c(N)nccc12` [Example 9.06]: the IC50 in assay [1] fell in the range of 0.1 to 0.279 µM; in assay [2], 10 to 40 µM.
As for `CC(C)Oc1cc(C(=O)N[C@@H](Cc2ccc(F)c(F)c2)C(=O)NCc2ccc3c(N)nccc3c2)ccn1` [Example 0.95], the IC50 in assay [1] is 10 to 40 µM; in assay [2] it was above 40 µM.
As to `CC(C)N[C@H](CCCCN1CCCCC1)C(=O)N1CC[C@H]1C(=O)NCc1ccc2c(N)nccc2c1` [Example 17.10], the IC50 in assay [1] is 0.28 to 1 µM; in assay [2], above 40 µM.
On to `N[C@H](CCCCN1CCC(F)(F)CC1)C(=O)N1CC[C@H]1C(=O)NCc1ccc2[nH]cc(Cl)c2c1` [Example 10.12], for which the IC50 is 1 to 3 µM in assay [1] and above 40 µM in assay [2].
Consider `C[C@@H]1CCC[C@H](C)N1CC(=O)N1CC[C@H]1C(=O)NCc1ccc2c(N)nccc2c1` [Example 32.11], for which the results for the IC50 in assay [1] and in assay [2] were 3 to 10 µM and 10 to 40 µM, respectively.
On to `CC(C)c1cc(C(=O)N[C@@H](Cc2ccc(F)c(F)c2)C(=O)NCc2ccc3c(N)nccc3c2)cnn1` [Example 0.97], for which the IC50 was 1 to 3 µM in assay [1] and above 40 µM in assay [2].
For the compound `N[C@H](CCCCN1CCN(c2ncccn2)CC1)C(=O)N1CC[C@H]1C(=O)NCc1ccc2[nH]cc(Cl)c2c1` [Example 10.08], the figures for the IC50 in assay [1] and in assay [2] were 3 to 10 µM and above 40 µM, respectively.
As to `C[C@H](NC(=O)[C@@H](CCc1ccccc1)NC1CCCCC1)C(=O)NCc1ccc2c(N)nccc2c1` [Example 6.19], the IC50 fell in the range of 0.03 to 0.1 µM in assay [1] and 0.3 to 1 µM in assay [2].
As to `C[C@H](NC(=O)[C@H](N)COc1ccccc1)C(=O)NCc1ccc2c(N)nccc2c1` [Example 6.17], the IC50 in assay [1] and in assay [2] was 10 to 40 µM throughout.
For the compound `C[C@H](NC(=O)[C@H](O)CCc1ccccc1)C(=O)NCc1ccc2c(N)nccc2c1` [Example 6.24], the IC50 in assay [1] and in assay [2] was 10 to 40 µM in each case.
On to `Nc1nccc2cc(CNC(=O)C3(NC(=O)[C@H](N)CCc4ccccc4)CCOCC3)ccc12` [Example 54.03], for which the values for the IC50 in assay [1] and in assay [2] were 3 to 10 µM and above 40 µM, respectively.
In the case of `CC(C)N[C@H](CCCCN1CCCCC1)C(=O)N[C@@H](Cc1ccc(F)c(F)c1)C(=O)NCc1cccs1` [Example 27.07], the IC50 is 3 to 10 µM in assay [1] and above 40 µM in assay [2].
For the compound `C[C@H](NC(=O)[C@H](N)CCc1ccccc1)C(=O)N[C@@H]1CCc2c1ccnc2N` [Example 9.02], the figures for the IC50 in assay [1] and in assay [2] were 0.28 to 1 µM and above 40 µM, respectively.
For `C[C@@H]1CCC[C@H](C)N1CC(=O)N1C[C@H](c2ccccc2)C[C@H]1C(=O)NCc1ccc2c(N)nccc2c1` [Example 43.02], the IC50 in assay [1] was 0.28 to 1 µM; in assay [2], 10 to 40 µM.
On to `C[C@H](NC(=O)[C@H]1Cc2ccccc2CN1)C(=O)NCc1ccc2c(N)nccc2c1` [Example 45.04], for which the results for the IC50 in assay [1] and in assay [2] were 10 to 40 µM and 3 to 10 µM, respectively.
In the case of `C[C@H](NC(=O)[C@H]1C[C@H](c2ccccc2)CN1)C(=O)NCc1ccc2c(N)nccc2c1` [Example 45.03], the values for the IC50 in assay [1] and in assay [2] were 1 to 3 µM and 3 to 10 µM, respectively.
Consider `CC(C)c1cncc(C(=O)N[C@@H](Cc2ccc(F)c(F)c2)C(=O)NCc2ccc3c(N)nccc3c2)n1` [Example 0.98], for which the results for the IC50 in assay [1] and in assay [2] were 10 to 40 µM and above 40 µM, respectively.
For `C[C@H](NC(=O)[C@@H](N)CCc1ccccn1)C(=O)NCc1ccc2c(N)nccc2c1` [Example 6.12], the IC50 in assay [1] is 10 to 40 µM; in assay [2], above 40 µM.
As for `CC(C)N[C@H](CCCCN1CCCCC1)C(=O)N[C@@H](Cc1csc2ccccc12)C(=O)NCc1ccc2c(N)nccc2c1` [Example 12.07], the IC50 is below 0.03 µM in assay [1] and 1 to 3 µM in assay [2].
Take `CC(C)N[C@H](CCCCN1CCCCC1)C(=O)N[C@@H](Cc1cccc2ccccc12)C(=O)NCc1ccc2c(N)nccc2c1` [Example 12.06, (2R)—N-[(1S)-1-{[(1-Aminoisoquinolin-6-yl)methyl]carbamoyl}-2-(naphthalen-1-yl)ethyl]-2-(isopropylamino)-6-(piperidin-1-yl)hexanamide]: the results for the IC50 in assay [1] and in assay [2] were below 0.03 µM and 3 to 10 µM, respectively.
With `C[C@H](NC(=O)[C@@H]1NCc2ccccc21)C(=O)NCc1ccc2c(N)nccc2c1` [Example 45.05], the IC50 is 10 to 40 µM in assay [1] and above 40 µM in assay [2].
For `CC(C)N[C@H](CCCCN1CCCCC1)C(=O)N1CC[C@H]1C(=O)NCc1ccc2[nH]cc(Cl)c2c1` [Example 10.01, (2S)—N-[(3-Chloro-1H-indol-5-yl)methyl]-1-[(2R)-2-(isopropylamino)-6-(piperidin-1-yl)hexanoyl]azetidine-2-carboxamide], in that order: 0.03 to 0.1 µM and 10 to 40 µM.
For `N[C@H](CCCCN1CCCC(F)(F)C1)C(=O)N1CC[C@H]1C(=O)NCc1ccc2[nH]cc(Cl)c2c1` [Example 10.15], in that order: 3 to 10 µM and above 40 µM.
As for `CC(=O)N1C[C@H](c2ccccc2)C[C@H]1C(=O)NCc1ccc2c(N)nccc2c1` [Example 43.01], the IC50 in assay [1] was 3 to 10 µM; in assay [2] it was above 40 µM.
In the same order, the values of `Nc1nccc2cc(CNC(=O)[C@H](Cc3ccc(F)c(F)c3)NC(=O)CCCCCN3CCCCC3)ccc12` [Example 12.11] are 0.28 to 1 µM and above 40 µM.
Regarding `CC(C)N[C@H](CCCCN1CCCCC1)C(=O)N1C[C@@H](c2ccc(F)c(F)c2)[C@H]1C(=O)NCc1ccc2[nH]cc(Cl)c2c1` [Example 10.07], the IC50 in assay [1] is 0.28 to 1 µM; in assay [2] it was above 40 µM.
In the same order, the values of `Nc1nccc2cc(CNC(=O)C3(NC(=O)[C@H](N)CCc4ccccc4)CCC3)ccc12` [Example 54.02] are 1 to 3 µM and 10 to 40 µM.
On to `CC(C)N[C@H](CCc1ccccc1)C(=O)N[C@@H](C)C(=O)NCc1ccc2c(N)nccc2c1` [Example 6.11], for which the IC50 was in the range of 0.28 to 1 µM in assay [1] and 3 to 10 µM in assay [2].
Regarding `CCC(C)[C@@H](N)C(=O)N[C@H](CC1CCCC2CCCCC21)C(=O)NCc1ccc(C(=N)N)s1` (stereo partly shown) [Example 71.03], the IC50 in assay [1] and in assay [2] was 1 to 3 µM each time.
Turning to `CC(C)N[C@H](CCc1ccccc1)C(=O)N[C@@H](C)C(=O)NCc1ccc2[nH]cc(Cl)c2c1` [Example 9.08], the IC50 in assay [1] lay within 1 to 3 µM; in assay [2] it was 10 to 40 µM.
For `Nc1nccc2cc(CNC(=O)[C@@H]3CCN3C(=O)[C@H](N)CCc3ccccc3)ccc12` [Example 17.05], the figures for the IC50 in assay [1] and in assay [2] were 0.28 to 1 µM and 10 to 40 µM, respectively.
As for `CC(C)N[C@H](CCCCN1CCCCC1)C(=O)N[C@@H](Cc1ccc(F)c(F)c1)C(=O)NCc1cnc2[nH]cc(Cl)c2c1` [Example 27.04], the results for the IC50 in assay [1] and in assay [2] were 0.03 to 0.1 µM and above 40 µM, respectively.
Take `Nc1nccc2cc(CNC(=O)CNC(=O)C(CCc3ccccc3)N3CCNCC3)ccc12` (stereo not shown) [Example 18.109]: the IC50 is 10 to 40 µM in assay [1] and above 40 µM in assay [2].
As for `CC(C)N[C@H](CCc1ccccc1)C(=O)N[C@@H](C)C(=O)NCc1cnc2[nH]cc(Cl)c2c1` [Example 9.03], the IC50 is 1 to 3 µM in assay [1] and above 40 µM in assay [2].
With `C[C@@H]1CCC[C@H](C)N1CC(=O)NC1(C(=O)NCc2ccc3c(N)nccc3c2)CC1` [Example 39.09], the IC50 in assay [1] is 3 to 10 µM; in assay [2], above 40 µM.
For `Nc1nccc2cc(CNC(=O)CNC(=O)c3ccc4ccccc4n3)ccc12` [Example 18.107], in that order: 10 to 40 µM and above 40 µM.
For the compound `CC(C)N[C@H](CCc1ccccc1)C(=O)N(C)[C@@H](C)C(=O)NCc1ccc2c(N)nccc2c1` [Example 65.01], the IC50 in assay [1] lay in the range of 0.28 to 1 µM; in assay [2], 3 to 10 µM.
As to `N[C@H](CCCCN1CCc2ccccc21)C(=O)N1CC[C@H]1C(=O)NCc1ccc2[nH]cc(Cl)c2c1` [Example 10.14], the IC50 was 10 to 40 µM in assay [1] and above 40 µM in assay [2].
As to `C[C@H](NC(=O)[C@@H](CCc1ccccc1)NS(C)(=O)=O)C(=O)NCc1ccc2c(N)nccc2c1` [Example 6.20], the values for the IC50 in assay [1] and in assay [2] were 0.28 to 1 µM and 0.3 to 1 µM, respectively.

For the origin of these results see patent US20220298138A1, “ENZYME INHIBITORS” (KALVISTA PHARMACEUTICALS LIMITED, priority 2019, published 2022).
